Measurements from PMC11062906 (Nature, 2024).
“And” between values parts separate entries of the source, which are not always exact repeats. Equal entries are not always repeated. “Also recorded” adds a separate entry of the source.

Legend:
BmGr9 D165E = test: GCaMP calcium flux assay, BmGr9 D165E; format: cell-based, Bombyx mori
BmGr9 Y332Q = test: GCaMP calcium flux assay, BmGr9 Y332Q; format: cell-based, Bombyx mori
BmGr9 Q443N = test: GCaMP calcium flux assay, BmGr9 Q443N; format: cell-based, Bombyx mori
BmGr9 R86A = test: GCaMP calcium flux assay, BmGr9 R86A; format: cell-based, Bombyx mori
BmGr9 Q443D = BmGr9 Q443D (Bombyx mori, UniProt B3GTD7, Q443D); test: GCaMP calcium flux assay, BmGr9 Q443D; format: cell-based
Chain of BmGr9 Q443D (B3GTD7 entry or part of it Q443D): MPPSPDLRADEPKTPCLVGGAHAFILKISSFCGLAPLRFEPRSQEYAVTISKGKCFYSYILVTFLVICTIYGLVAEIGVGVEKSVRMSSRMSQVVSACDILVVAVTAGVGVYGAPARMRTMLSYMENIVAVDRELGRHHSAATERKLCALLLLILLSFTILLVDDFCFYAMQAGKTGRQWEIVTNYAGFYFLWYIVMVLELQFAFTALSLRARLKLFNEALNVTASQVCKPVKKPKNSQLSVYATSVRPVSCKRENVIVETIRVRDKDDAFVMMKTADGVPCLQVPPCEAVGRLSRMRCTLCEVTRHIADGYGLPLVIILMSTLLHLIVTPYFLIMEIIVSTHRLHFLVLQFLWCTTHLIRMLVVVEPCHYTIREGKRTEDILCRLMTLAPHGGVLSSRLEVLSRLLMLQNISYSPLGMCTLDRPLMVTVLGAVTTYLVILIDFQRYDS

BmGr9 D165N = test: GCaMP calcium flux assay, BmGr9 D165N; format: cell-based, Bombyx mori
BmGr9 Q443E = BmGr9 Q443E (Bombyx mori, UniProt B3GTD7, Q443E); test: GCaMP calcium flux assay, BmGr9 Q443E; format: cell-based
Chain of BmGr9 Q443E (B3GTD7 entry or part of it Q443E): as the sequence (B3GTD7 entry or part of it Q443D) above, with D443E counted along it

BmGr9 Q351A = BmGr9 Q351A (Bombyx mori, UniProt B3GTD7, Q351A); test: GCaMP calcium flux assay, BmGr9 Q351A; format: cell-based
Chain of BmGr9 Q351A (B3GTD7 entry or part of it Q351A): as the sequence (B3GTD7 entry or part of it Q443D) above, with Q351A, D443Q counted along it

BmGr9 Q351N = BmGr9 Q351N (Bombyx mori, UniProt B3GTD7, Q351N); test: GCaMP calcium flux assay, BmGr9 Q351N; format: cell-based
Chain of BmGr9 Q351N (B3GTD7 entry or part of it Q351N): as the sequence (B3GTD7 entry or part of it Q443D) above, with Q351N, D443Q counted along it

BmGr9 F333A = test: GCaMP calcium flux assay, BmGr9 F333A; format: cell-based, Bombyx mori
BmGr9 Q443D_Q445R = BmGr9 Q443D_Q445R (Bombyx mori, UniProt B3GTD7, Q443D/Q445R); test: GCaMP calcium flux assay, BmGr9 Q443D_Q445R; format: cell-based; conditions: 95% CI in parentheses
Chain of BmGr9 Q443D_Q445R (B3GTD7 entry or part of it Q443D/Q445R): as the sequence (B3GTD7 entry or part of it Q443D) above, with Q445R counted along it

BmGr9 Q351E = test: GCaMP calcium flux assay, BmGr9 Q351E; format: cell-based, Bombyx mori
BmGr9 F333L = test: GCaMP calcium flux assay, BmGr9 F333L; format: cell-based, Bombyx mori
BmGr9 Y190A = test: GCaMP calcium flux assay, BmGr9 Y190A; format: cell-based, Bombyx mori
BmGr9 H358A = BmGr9 H358A (Bombyx mori, UniProt B3GTD7, H358A); test: GCaMP calcium flux assay, BmGr9 H358A; format: cell-based
Chain of BmGr9 H358A (B3GTD7 entry or part of it H358A): as the sequence (B3GTD7 entry or part of it Q443D) above, with H358A, D443Q counted along it

BmGr9 T330V = BmGr9 T330V (Bombyx mori, UniProt B3GTD7, T330V); test: GCaMP calcium flux assay, BmGr9 T330V; format: cell-based
Chain of BmGr9 T330V (B3GTD7 entry or part of it T330V): as the sequence (B3GTD7 entry or part of it Q443D) above, with T330V, D443Q counted along it

BmGr9 H358Q = test: GCaMP calcium flux assay, BmGr9 H358Q; format: cell-based, Bombyx mori
BmGr9 R86K = BmGr9 R86K (Bombyx mori, UniProt B3GTD7, R86K); test: GCaMP calcium flux assay, BmGr9 R86K; format: cell-based
Chain of BmGr9 R86K (B3GTD7 entry or part of it R86K): as the sequence (B3GTD7 entry or part of it Q443D) above, with R86K, D443Q counted along it

BmGr9 = BmGr9 (Bombyx mori, UniProt B3GTD7); test: Cell-based GCaMP calcium flux assay, wild-type BmGr9
Chain of BmGr9 (B3GTD7 entry or part of it): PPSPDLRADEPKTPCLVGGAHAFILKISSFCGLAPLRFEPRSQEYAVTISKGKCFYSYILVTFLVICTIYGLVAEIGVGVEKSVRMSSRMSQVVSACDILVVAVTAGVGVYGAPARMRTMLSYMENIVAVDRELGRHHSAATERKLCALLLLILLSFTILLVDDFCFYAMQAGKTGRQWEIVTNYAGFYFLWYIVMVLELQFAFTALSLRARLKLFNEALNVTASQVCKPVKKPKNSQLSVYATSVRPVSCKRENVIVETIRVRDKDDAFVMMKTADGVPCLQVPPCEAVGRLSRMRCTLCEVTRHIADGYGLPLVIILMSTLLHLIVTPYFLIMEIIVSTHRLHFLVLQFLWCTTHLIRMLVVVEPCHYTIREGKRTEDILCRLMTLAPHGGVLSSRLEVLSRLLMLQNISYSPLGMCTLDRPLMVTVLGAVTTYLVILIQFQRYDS

BmGr9 Q445R = test: GCaMP calcium flux assay, BmGr9 Q445R; format: cell-based, Bombyx mori
BmGr9 F333Y = test: GCaMP calcium flux assay, BmGr9 F333Y; format: cell-based, Bombyx mori
BmGr9 Q443A = test: GCaMP calcium flux assay, BmGr9 Q443A; format: cell-based, Bombyx mori
BmGr9 Q445K = test: GCaMP calcium flux assay, BmGr9 Q445K; format: cell-based, Bombyx mori
BmGr9 I440A = test: GCaMP calcium flux assay, BmGr9 I440A; format: cell-based, Bombyx mori
BmGr9 F189A = test: GCaMP calcium flux assay, BmGr9 F189A; format: cell-based, Bombyx mori

## O=C(CO)[C@@H](O)[C@H](O)[C@H](O)CO [D-fructose]
BmGr9 D165E
  F max: ~0.12
  activation by D-fructose (printed in Hill Slope column): no activity
BmGr9 Y332Q
  activation by D-fructose (Fmax, Hill slope, EC50 fit): no activity
BmGr9 Q443N
  activation by D-fructose (Fmax, Hill slope, EC50 fit): no activity
BmGr9 R86A
  activation by D-fructose (Fmax, Hill slope, EC50 fit): no activity
BmGr9 Q443D
  EC50: 10 mM
BmGr9 Q443D; Q443D, 95% CI in parentheses
  Hill Slope: 1.52 (0.94 to 2.57)
BmGr9 D165N
  F max: ~0.10
  activation by D-fructose (printed in Hill Slope column): no activity
BmGr9 Q443E
  EC50: 1.32 mM
BmGr9 Q443E; Gln443 to Glu
  apparent affinity relative to wild-type: increased apparent affinity
BmGr9 Q443E; Q443E
  Hill Slope: ~2.57
BmGr9 Q443E; Q443E, 100 mM D-fructose
  Fluorescence change relative to wild-type BmGr9: more active than wild-type BmGr9
BmGr9 Q351A
  EC50: 3.9 mM
BmGr9 Q351A; Q351A, 95% CI in parentheses
  Hill Slope: 1.89 (0.60 to 5.26)
BmGr9 Q351N
  EC50: ~8 mM
BmGr9 Q351N; Q351N
  Hill Slope: ~0.71
BmGr9 F333A
  activation by D-fructose (Fmax, Hill slope, EC50 fit): no activity
BmGr9 Q443D_Q445R
  Hill Slope: 0.31 (0.13 to 1.13)
BmGr9 Q351E
  activation by D-fructose (Fmax, Hill slope, EC50 fit): no activity
BmGr9 F333L
  activation by D-fructose (Fmax, Hill slope, EC50 fit): no activity
BmGr9 Y190A
  activation by D-fructose (Fmax, Hill slope, EC50 fit): no activity
BmGr9 H358A
  Hill Slope: ~1.06
BmGr9 T330V
  EC50: ~98 mM
BmGr9 T330V; T330V
  Hill Slope: ~6.22
BmGr9 H358Q
  F max: ~0.14
  Hill Slope: ~1.43
BmGr9 R86K
  EC50: 10.4 mM
BmGr9 R86K; R86K
  Hill Slope: ~2.45
BmGr9; 100 mM sweet compound, HEK293 cells with BmGr9 plus GCaMP vs GCaMP only
  Activation of BmGr9 (change in fluorescence) by sweet compound: elicited a strong response; also recorded: significantly different activity
BmGr9; EC50, WT BmGr9, 95% CI in parentheses
  EC50: 8.71 mM
BmGr9; Fig. 1b dose-response, n = 8, 95% CI in parentheses
  Hill coefficient: 2.3 (1.3–4.6)
BmGr9; WT BmGr9, 95% CI in parentheses
  Hill Slope: 1.94 (1.48 to 2.58)
BmGr9; half-maximal activation concentration (EC50), Fig. 1b dose-response, HEK293 cells with BmGr9 and GCaMP6s, n = 8, 95% CI in parentheses
  EC50: 9 mM and 8.2 mM
BmGr9 Q445R
  activation by D-fructose (Fmax, Hill slope, EC50 fit): no activity
BmGr9 F333Y
  activation by D-fructose (Fmax, Hill slope, EC50 fit): no activity
BmGr9 Q443A
  activation by D-fructose (Fmax, Hill slope, EC50 fit): no activity
BmGr9 Q445K
  activation by D-fructose (Fmax, Hill slope, EC50 fit): no activity
BmGr9 I440A
  activation by D-fructose (Fmax, Hill slope, EC50 fit): no activity
BmGr9 F189A
  activation by D-fructose (Fmax, Hill slope, EC50 fit): no activity
